Columns and labels:
Assay type in all cases: cell-based, human
[1] = test system: p62; assay: Western blotting, protein expression in oleic acid induced HepG2 cells; conditions: high dose group
Procedure: (§1) The culture, model establishment and drug treatment manners of the cells were operated according to 1.2.3. After completion, cells were collected, cytoplasmic proteins were extracted, and protein electrophoresis was conducted after quantification. Particularly the following methods were used:
(§2) When the cell confluence reached 70%, 0.5 mM oleic acid was added to treat the cells for 24 h. After completion, the cells were collected and the cytoplasmic protein was extracted, and the protein electrophoresis was conducted after quantification. The electrophoresis method was as follows:
(§3) After cell culture was completed, the culture plate was taken out, the culture medium in the well was discarded, the pellet was washed twice with PBS, placed onto an ice bath, and added with 100 μL of a protein lysis buffer (RIPA) (PMSF was added into the cell lysis buffer at 1:1000 within few minutes before the use, with a final concentration of 1 mM) per well. After the cells were lysed for about […], the cells were scraped off with a cell scraper, pipetted into a 1.5 mL centrifuge tube (which could be crushed with an ultrasonic cell disruptor for 3-5 times), then centrifuged at 12,000 rpm under 4° C. for 15-20 mM. The supernatant was taken and transferred into a new centrifuge tube for protein quantification or storage at −80° C.
(§4) Theprotein content was determined by a BCA method, and the operation method was carried out according to the instructions of the kit. After the protein concentration was measured, the protein sample was added with a 5× loading buffer and mixed uniformly at 1:4, then subjected to water bath at 100° C. for […] (entangling with a sealing film to prevent bouncing off), and stored at 4° C.
(§5) The specific operation method of protein electrophoresis was in accordance with the relevant references. Since each of the molecular weight of the target proteins was within 10-80 KDa except for FASN (the separation gel was prepared according to the following table), the separation gel concentration was selected to be 10%, and the concentration of the FASN protein separation gel was selected to be 6%.
(§6) A spacer gel was formulated according to the following table, and sample loading was conducted. After completion, electrophoresis should be conducted as soon as possible, where concentration was conducted at 80 v for 30 min, and then electrophoresis was conducted at 120 v until the front edge ran to the lower edge of the separation gel, and the electrophoresis was stopped.
3. […]

[2] = test system: Bcl-1; assay: as above; conditions: high dose group
Procedure: as §1, §2, §3, §4, §5, §6
3. […]

[3] = test system: Fas; assay: Q-PCR, mRNA expression in oleic acid induced HepG2 cells
Description: (§7) The culture, model establishment and drug treatment manners of the cells were the same as those in 1.2.4. After the completion of the treatment, the cells were collected, total RNA was extracted, then cDNA was synthesized by reverse transcription, and finally, the change of the transcription level of autophagy-related genes of the HepG2 cell in a nonalcoholic fatty liver disease model under the actions of petunidin-3-O-β-D glucoside and malvidin-3-O-β-D glucoside was detected by the real-time fluorescent quantitative PCR method, where the following method can be adopted:
(§8) 1. After the completion of drug treatment, the cells were washed with PBS for 2 times, added with 1 mL Trizol per about 1×10^7 cells, then pipetted up and down with a 1 mL pipette gun (free of RNA enzymes) until the liquid was clear and had no cell aggregate, transferred into a […] RNA-enzyme-free EP tube, mixed well by inverting up and down for 10 times, and lysed for 5 minutes at room temperature.
(§9) 1. The first strand of cDNA was synthesized by using 800 ng of total RNA as a template and a total system of 20 μL. A nuclease-free PCR tube in the ice bath was added with the following reagents:
(§10) 5. A reverse transcription reaction was carried out on a PCR machine under the following conditions: incubation at 25° C. for 10 min, cDNA synthesis at 50° C. for 30 min, and reaction termination at 85° C. for 5 min. The resulting cDNA product was stored at −20° C.
(§11) 1. According to the gene sequence provided in the literature, the primers were synthesized by Sangon Biotech (Shanghai) Co., Ltd., and the primer sequences of β-actin, APG5L, Apg7, p62 , Bcl-1 and FASN were shown in the table below:
(§12) 2. The above reaction solution was placed into a real-time quantitative PCR instrument for amplification, and the PCR reaction conditions were as shown in the table below:
(§13) For the expression of the target gene, the difference was corrected with a reference gene β-actin by a Ct value comparison method, and the changing multiple was 2^−ΔΔCt. The calculation formula was: the changing multiple=2^−ΔΔCt, where ΔΔCt=(Ct of the target gene−Ct of the reference gene) the drug treatment group−(Ct of the target gene−Ct of the reference gene) control.

[4] = test system: p62; assay: as above; conditions: for mRNA level of p62: high dose group; for mRNA expression of p62: low and medium doses
Description: as §7, §8, §9, §10, §11, §12, §13

[5] = test system: Bcl-1; assay: as above
Description: as §7, §8, §9, §10, §11, §12, §13

[6] = test system: APGSL; assay: as above
Description: as §7, §8, §9, §10, §11, §12, §13

[7] = test system: APG7; assay: as above; conditions: for mRNA level of Apg7: high dose group; for mRNA expression of Apg7: low and medium doses
Description: as §7, §8, §9, §10, §11, §12, §13

[8] = test system: high-fat HepG2 cells; assay: Total cholesterol (TC) content in the cells, TC kit; conditions: for level of TC in a high fat cell: FIGS. 4A, 5A; for level of TC, compared with control group and low dose group: medium and high doses
Procedure: 2. The culture, model establishment and experimental steps of the cells were operated according to the above steps. The anthocyanin compound mother liquor was diluted to 0, 0.1, 1, 10, 50, and 100 μM to treat the high-fat HepG2 cells, respectively.
3. The culture solution was pipetted off, gently washed with PBS for 3 times, and added with trypsin to digest the cells for 1 min The cell suspension was pipetted into a 1.5 mL sterile EP tube, centrifuged at 1000 rpm for 10 minutes, the supernatant was discarded, the pellet was added with an appropriate amount of PBS, ultrasonically crushed under the condition of an ice-water bath, and the prepared homogenate was not centrifuged and was ready for determination.
The total cholesterol (TC) content in the cells was determined according to the operating instructions of a TC kit. The protein content in the cells was determined by a BCA protein concentration kit, and the total cholesterol content in the cells was calibrated with the protein content.

**Q.** `COc1cc(-c2[o+]c3cc(O)cc(O)c3cc2O[C@@H]2O[C@H](CO)[C@@H](O)[C@H](O)[C@H]2O)cc(OC)c1O` [malvidin-3-O-β-D glucoside] was tested. Which “protein expression of p62” value [1] did it give?
**A.** Its value is “inhibition trend”.

**Q.** And the “protein expression of Bcl-1” value [2]?
**A.** Its value is “inhibition trend”.

**Q.** What about the “mRNA expression level of Fas” value [3] of the same compound?
**A.** Its value is “significantly decrease”.

**Q.** And the “mRNA level of p62” value [4]?
**A.** Its value is “up-regulate”.

**Q.** What about the “mRNA expression of p62” value [4] of the same compound?
**A.** The value was “reduced”.

**Q.** What about the “mRNA expression level of Bcl-1” value [5] of the same compound?
**A.** Its value is “significantly decrease”.

**Q.** What about the “mRNA level of APGSL” value [6] of the same compound?
**A.** The value was “up-regulate”.

**Q.** And the “mRNA level of Apg7” value [7]?
**A.** Its value is “up-regulate”.

**Q.** What about the “mRNA expression of Apg7” value [7] of the same compound?
**A.** The value was “reduced”.

**Q.** What about the “level of TC in a high fat cell” value [8] of the same compound?
**A.** The value was “reduce”.

**Q.** And the “level of TC, compared with control group and low dose group” value [8]?
**A.** Its value is “very significant reduction”.

**Q.** How did the “protein expression of p62” value [1] turn out when `COc1cc(-c2[o+]c3cc(O)cc(O)c3cc2O[C@@H]2O[C@H](CO)[C@@H](O)[C@H](O)[C@H]2O)cc(O)c1O` [petunidin-3-O-β-D glucoside] was run?
**A.** The value was “inhibition trend”.

**Q.** And the “protein expression of Bcl-1” value [2]?
**A.** Its value is “inhibition trend”.

**Q.** What about the “mRNA expression level of Fas” value [3] of the same compound?
**A.** Its value is “significantly decrease”.

**Q.** And the “mRNA level of p62” value [4]?
**A.** The value was “up-regulate”.

**Q.** And the “mRNA expression of p62” value [4]?
**A.** The value was “reduced”.

**Q.** And the “mRNA expression level of Bcl-1” value [5]?
**A.** The value was “significantly decrease”.

**Q.** And the “mRNA level of APGSL” value [6]?
**A.** The value was “up-regulate”.

**Q.** And the “mRNA level of Apg7” value [7]?
**A.** The value was “up-regulate”.

**Q.** And the “mRNA expression of Apg7” value [7]?
**A.** Its value is “reduced”.

**Q.** And the “level of TC in a high fat cell” value [8]?
**A.** The value was “reduce”.

**Q.** What about the “level of TC, compared with control group and low dose group” value [8] of the same compound?
**A.** The value was “very significant reduction”.
